Results on 5 substances are retold here after US7867976B2, “Nogo epitopic fragments for modulating immune response” (The Board of Trustees of the Leland Stanford Junior …, priority 2003, dated 2011).

Assay [1] has as its system myelin antigens (2304-feature spotted peptide array, 293 distinct antigens). Kind of assay: antibody (B cell) response of sera from immunized animals on spotted peptide array. The assay is classed as in vivo, mice. The conditions noted are these: for epitope spreading of the B cell response to other myelin antigens: sera on proteome array, statistical and cluster analysis. The text has this: Nogo-66 peptide immunization induces a B cell response with epitope spreading to other myelin antigens. To follow the induction of a specific antibody response to the immunizing Nogo peptides, and the possible spread to other myelin antigens, we used an 2304-feature spotted peptide array developed in our laboratory that contains 293 distinct antigens including proteins and sets of overlapping peptides representing all major EAE-relevant targets and several Nogo-66 overlapping peptides together with p472 (Robinson, 2001). Sera from several immunized animals was obtained at different time points after EAE induction with all three Nogo peptides, and hybridized to the proteome array according to our protocol.
This was particularly relevant after immunization with pNogo45-66 in both strains, and with pNogo23-44 for C57BU6 mice. Spreading of the B cell response evidenced a specific pattern for each immunizing antigen within each strain, with very little overlap between them.
Immunization. For Nogo immunizations, SJL/J and C57BU6 female mice were injected subcutaneously with Nogo-peptide emulsions (concentrations ranging from 100 μg to 500 μg per injection) in CFA, consisting of IFA (Difco) and 1 mg/ml heat-inactivated Mycobacterium tuberculosis (strain H37RA; Difco laboratories, Detroit Mich.). Animals received two subcutaneous injections a week apart in different sites (flank and groin); at the time of the second immunization and 48 hours later, mice were injected intravenously with Bordetella pertussis toxin (List Laboratories) in PBS, 500 ng/animal; For Nogo-A/B/C knockouts, animals were immunized subcutaneously with 100 μg of MOG35-55 peptide emulsion in CFA and received two intravenous injections of 300 ng of Bordetella pertussis toxin, at the time of immunization and 48 hours later. […] Animals were clinically scored daily according to the following scale: 0-normal; 1-tail paralysis; 2-hind limb paraparesis; 3-complete hind limb paralysis; 4-forelimb paresis or paralysis; 5-death.

Assay [2] has as its system whole lymph node cells. The experiment in a line: whole lymph node cell proliferation assay against Nogo and irrelevant peptides after Nogo-66 peptide immunization. The assay is classed as cell-based, mice. As to conditions: draining lymph nodes at end of experiments. The text has this: Induction of EAE and T cell responses with Nogo-66 peptides in susceptible mouse strains. To ascertain the potential for Nogo-A to act as a target autoantigen for autoimmune demyelination, we chose to focus on the exposed extracellular 66-amino acid loop, Nogo-66, since this should be the region most prone to interaction with immune cells. EAE susceptible SJL/J and C57BU6 female mice of the appropriate age were subcutaneously immunized with Nogo-66 derived peptides in CFA, in various concentration ranging from 200 μg to 1000 μg, together with intravenous administration of Pertussis toxin.
Three different arbitrarily selected peptides were synthesized to encompass the whole sequence (peptides 1-22, 23-44 and 45-66). […] To evaluate the generation of a T cell proliferative response against the immunizing antigen, we collected draining lymph nodes at the end of the experiments and setup whole lymph node cell proliferation assays against our panel of Nogo and irrelevant peptides. […] Therefore, T cell epitopes appear to be slightly different between these two strains.
Immunization. For Nogo immunizations, SJL/J and C57BU6 female mice were injected subcutaneously with Nogo-peptide emulsions (concentrations ranging from 100 μg to 500 μg per injection) in CFA, consisting of IFA (Difco) and 1 mg/ml heat-inactivated Mycobacterium tuberculosis (strain H37RA; Difco laboratories, Detroit Mich.). Animals received two subcutaneous injections a week apart in different sites (flank and groin); at the time of the second immunization and 48 hours later, mice were injected intravenously with Bordetella pertussis toxin (List Laboratories) in PBS, 500 ng/animal; For Nogo-A/B/C knockouts, animals were immunized subcutaneously with 100 μg of MOG35-55 peptide emulsion in CFA and received two intravenous injections of 300 ng of Bordetella pertussis toxin, at the time of immunization and 48 hours later. Chronic EAE was induced in SJL/J mice by subcutaneous injection of […] of PLP139-151 peptide emulsion in CFA. Animals were clinically scored daily according to the following scale: 0-normal; 1-tail paralysis; 2-hind limb paraparesis; 3-complete hind limb paralysis; 4-forelimb paresis or paralysis; 5-death.
Proliferation assays. Whole lymph node cells were cultured in 96-well microtiter plates at 0.5×10^6 cells/well. Culture medium consisted of RPMI 1640 supplemented with L-glutamine (2 mM), sodium pyruvate (1 mM), non-essential amino acids (0.1 mM), penicillin (100 U/ml), streptomycin (0.1 mg/ml), 2-ME (5×10^−5 M) and 10% fetal bovine serum. Wells were pulsed with 1 μCi [^3H]TdR for the final 16 hours of culture, and incorporated radioactivity was measured using a betaplate scintillation counter.

For assay [3], the system named is whole lymph node cells (T cells, dendritic cells). Kind of assay: FACScan analysis of activation markers and co-stimulatory molecules after immunization. The conditions noted are these: female SJL/J, 10 days post-immunization; compared with PLP139-151. The class given is cell-based, mice. The text has this: We purified whole lymph node cells from female SJL/J animals 10 days post-immunization with PLP139-151, pNogo1-22 and pNogo45-66 and looked at the expression of several activation markers and co-stimulatory molecules by fluorescence activated cell scan (FACScan) analysis. […] Nogo-peptides are capable of normal presentation by APC and immunization leads to normal activation of T cells.

The subject of assay [4] is EAE in SJL/J mice. Kind of assay: adoptive transfer of Nogo-reactive T cells into SJL/J mice with PLP139-151 induced EAE. The conditions noted are these: cells of EAE animals that received TCL; compared with PLP139-151. The class given is in vivo. As to the method:
We induced EAE in SJL/J mice by immunization with 100 μg of PLP139-151 peptide in CFA and followed these animals for disease course. At the peak of second relapse (day 31), animals were randomized into three groups and received either weekly PBS, anti-pNogo1-22 or anti-pNogo45-66 reactive T cells in PBS (average of 15 million cells), by intravenous administration for three weeks. […] For these animals, this improvement was maintained throughout the next 45 days of the experiment, up to 30 days after the last TCL administration.
Immunization. For Nogo immunizations, SJL/J and C57BU6 female mice were injected subcutaneously with Nogo-peptide emulsions (concentrations ranging from 100 μg to 500 μg per injection) in CFA, consisting of IFA (Difco) and 1 mg/ml heat-inactivated Mycobacterium tuberculosis (strain H37RA; Difco laboratories, Detroit Mich.). […] Animals were clinically scored daily according to the following scale: 0-normal; 1-tail paralysis; 2-hind limb paraparesis; 3-complete hind limb paralysis; 4-forelimb paresis or paralysis; 5-death.
Proliferation assays. […] Wells were pulsed with 1 μCi [^3H]TdR for the final 16 hours of culture, and incorporated radioactivity was measured using a betaplate scintillation counter.

For assay [5], the target named is Normal Mouse Serum. The experiment in a line: myelin antigen microarray; positive-control feature 'Anti-mouse IgG/M' capturing immunoglobulin of the serum in column 'a. Normal'.
The target in assay [6] is Bi MOG35-55 BIOTIN. Kind of assay: myelin antigen microarray, serum antibody binding to spotted feature 'Bi MOG35-55 BIOTIN'.

Regarding “Nogo23-44 (LESEVAISEELVQKYSNSALGH; SEQ ID NO:5) [pNogo23-44, peptide 23-44 of the extracellular 66-amino acid loop Nogo-66]”, in assay [1], the “epitope spreading of the B cell response to other myelin antigens” value is “to MOG and MBP peptides (especially in C57BU6 animals)”. Also, in assay [2] (C57BU6 animals, listed as Ng23-44), the “T cell proliferative response against the immunizing antigen” value (“T cell proliferative response” below) is “T cell reaction”.
For “Nogo 1-22 (RIYKGVIQAIQKSDEGHPFRAY; SEQ ID NO:4) [pNogo1-22, peptide 1-22 of the extracellular 66-amino acid loop Nogo-66]”, in assay [3], the “cell surface expression of CD25, CD18, CD40L, CD62, CD69, CD28 and CTLA4e in T cells or CD80, CD86, CD40 in dendritic cells” value was “could not find any difference”. Besides, the “epitope spreading of the B cell response to other myelin antigens” value in assay [1] is on record as “mainly to MBP peptides”. Further, the “T cell proliferative response” value is “T cell reaction” in assay [2] (C57BU6 animals, listed as Ng1-22); “strong and specific proliferative response” in assay [2] (SJL/J animals); “T cell reaction” in assay [2] (SJL/J animals, listed as Ng1-22).
For “Nogo45-66 (VNSTIKELRRLFLVDDLVDSLK; SEQ ID NO:2) [pNogo45-66, peptide 45-66 of the extracellular 66-amino acid loop Nogo-66]”, the “cell surface expression of CD25, CD18, CD40L, CD62, CD69, CD28 and CTLA4e in T cells or CD80, CD86, CD40 in dendritic cells” value in assay [3] is “could not find any difference”. In assay [1] (mouse, in vivo), the “strength as B cell antigen compared with the other peptides” value was “much stronger B cell antigen than any of the other two synthesized peptides”. For the same substance, the “T cell proliferative response” value in assay [2] (SJL/J animals) is “strong and specific proliferative response”; in assay [2] (SJL/J animals, listed as Ng45-66) it was “T cell reaction”. Also, in assay [4], the “in vitro proliferation at the end of the experiment” value is “much stronger than against the EAE inducing antigen”.
Anti-mouse IgG/M (antibody) gave a microarray signal (quantity and unit not named on the sheet) in assay [5] of 50000.
As for Normal Mouse Serum, in assay [6], the microarray signal (quantity and unit not named on the sheet) was found to be 5.
